In article PMC8159961, “Exploring protein hotspots by optimized fragment pharmacophores” (Nature Communications, 2021):

What was measured:
human 5-HT1A receptor = molecular target: T1, human 5-HT1A receptor (Homo sapiens, UniProt P08908); test: GPCR radioligand binding assay, [3H]-8-OH-DPAT displacement, HEK293 membranes; conditions: for 5-HT1A % Inhibition by plate position: 10 µM; for %inh 5-HT1A average: average of exp_1 and exp_2; for %inh 5-HT1A exp_1: replicate exp_1; for %inh 5-HT1A exp_2: replicate exp_2; for %inh 5-HT1A corrected*: average, values below 0 and above 100% were set as 0 and 100
T1 construct: expressed in transfected cells
T1 sequence (P08908 1-422): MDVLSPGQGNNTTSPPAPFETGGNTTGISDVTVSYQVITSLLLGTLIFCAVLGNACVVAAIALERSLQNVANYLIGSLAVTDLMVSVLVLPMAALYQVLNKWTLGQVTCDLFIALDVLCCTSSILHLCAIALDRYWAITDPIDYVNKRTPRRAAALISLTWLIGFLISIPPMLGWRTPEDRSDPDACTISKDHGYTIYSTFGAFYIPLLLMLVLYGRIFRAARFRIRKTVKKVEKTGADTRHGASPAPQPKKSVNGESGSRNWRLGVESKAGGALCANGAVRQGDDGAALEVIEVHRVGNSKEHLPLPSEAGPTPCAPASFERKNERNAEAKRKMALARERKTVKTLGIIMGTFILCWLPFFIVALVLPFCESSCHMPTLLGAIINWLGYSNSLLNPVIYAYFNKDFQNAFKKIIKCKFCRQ

human 5-HT6 receptor = molecular target: T2, human 5-HT6 receptor (Homo sapiens, UniProt P50406); test: GPCR radioligand binding assay, [3H]-LSD displacement, HEK293 membranes; conditions: for 5-HT6 % Inhibition by plate position: 10 µM; for %inh 5-HT6 average: average of exp_1 and exp_2; for %inh 5-HT6 corrected*: average, values below 0 and above 100% were set as 0 and 100; for %inh 5-HT6 exp_1: replicate exp_1; for %inh 5-HT6 exp_2: replicate exp_2
T2 construct: expressed in transfected cells

human 5-HT7b receptor = molecular target: T3, human 5-HT7b receptor (Homo sapiens, UniProt P34969); test: GPCR radioligand binding assay, [3H]-5-CT displacement, HEK293 membranes; conditions: for 5-HT7 % Inhibition by plate position: 10 µM; for %inh 5-HT7 exp_1: replicate exp_1; for %inh 5-HT7 exp_2: replicate exp_2; for %inh 5-HT7 average: average of exp_1 and exp_2
T3 construct: expressed in transfected cells
T3 sequence (P34969 1-432): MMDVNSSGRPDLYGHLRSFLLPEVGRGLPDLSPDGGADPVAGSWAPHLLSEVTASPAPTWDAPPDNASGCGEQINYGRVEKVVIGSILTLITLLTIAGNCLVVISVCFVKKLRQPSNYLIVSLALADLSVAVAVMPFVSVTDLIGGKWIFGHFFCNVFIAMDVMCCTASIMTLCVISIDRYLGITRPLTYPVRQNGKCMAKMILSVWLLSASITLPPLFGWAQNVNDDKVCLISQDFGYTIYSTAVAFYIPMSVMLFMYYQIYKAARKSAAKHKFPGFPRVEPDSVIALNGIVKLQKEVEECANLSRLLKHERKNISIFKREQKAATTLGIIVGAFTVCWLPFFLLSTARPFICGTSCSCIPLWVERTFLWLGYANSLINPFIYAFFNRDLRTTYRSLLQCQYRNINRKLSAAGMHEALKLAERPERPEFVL

T2 sequence (P50406 whole entry): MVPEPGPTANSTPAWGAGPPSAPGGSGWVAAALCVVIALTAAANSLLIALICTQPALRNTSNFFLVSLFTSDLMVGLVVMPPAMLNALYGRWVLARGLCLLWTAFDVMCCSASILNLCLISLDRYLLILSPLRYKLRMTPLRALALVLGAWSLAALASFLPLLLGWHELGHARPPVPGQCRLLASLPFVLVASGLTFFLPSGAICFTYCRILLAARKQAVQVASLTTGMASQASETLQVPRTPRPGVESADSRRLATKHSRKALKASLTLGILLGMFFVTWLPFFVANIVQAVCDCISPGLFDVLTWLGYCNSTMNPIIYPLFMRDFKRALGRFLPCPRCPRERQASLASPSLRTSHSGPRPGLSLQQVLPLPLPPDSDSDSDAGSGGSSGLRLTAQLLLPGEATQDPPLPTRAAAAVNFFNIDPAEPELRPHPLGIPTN

| Structure (SMILES) | 5-HT1A % Inhibition by plate position (human 5-HT1A receptor) | %inh 5-HT1A average (human 5-HT1A receptor) | %inh 5-HT1A exp_1 (human 5-HT1A receptor) | %inh 5-HT1A exp_2 (human 5-HT1A receptor) | 5-HT6 % Inhibition by plate position (human 5-HT6 receptor) | %inh 5-HT6 average (human 5-HT6 receptor) | %inh 5-HT6 corrected* (human 5-HT6 receptor) | %inh 5-HT6 exp_1 (human 5-HT6 receptor) | %inh 5-HT6 exp_2 (human 5-HT6 receptor) | 5-HT7 % Inhibition by plate position (human 5-HT7b receptor) | %inh 5-HT7 exp_1 (human 5-HT7b receptor) | %inh 5-HT7 exp_2 (human 5-HT7b receptor) | %inh 5-HT7 average (human 5-HT7b receptor) | %inh 5-HT1A corrected* (human 5-HT1A receptor) |
| --- | --- | --- | --- | --- | --- | --- | --- | --- | --- | --- | --- | --- | --- | --- |
| N[C@H]1c2ccccc2C[C@H]1CO [B5] | 0% | -0.612% | -19% | 18% | 25% | 25% | 25% | 25% | 25% | 6% | 14% | -1% | – | – |
| O=c1[nH]ncc2c1oc1ccccc12 [B6] | 0% | -6.46% | -14% | 0.625% | 26% | 26% | 26% | 18% | 34% | 0% | 3.34% | -11% | -4% | – |
| O=C1NC(=O)C2(CCc3ccccc32)N1 (stereo not drawn) [B7] | 0% | -12% | -22% | -1.44% | 32% | 32% | 32% | 32% | 31% | 3.8% | 10% | -2.31% | – | – |
| CS(=O)(=O)c1ccc(OC(F)(F)F)cc1 [B8] | 0% | -30% | -20% | -40% | 4% | 4% | 4% | 0% | 8% | 6% | 3.74% | 8% | – | – |
| Cc1cnc(C(F)(F)F)cn1 [B9] | – | 1.1% | -7% | 9% | 32% | 32% | 32% | 32% | 33% | 11% | 14% | 7% | – | 1.1% |
| CN1CC(=O)NC1=O [B10] | 0% | -4.34% | 4% | -13% | 35% | 35% | 35% | 31% | 40% | 0% | -15% | 0% | -7.6% | – |
| Cc1cc(N)no1 [B11] | 0% | -21% | -18% | -24% | 37% | 37% | 37% | 40% | 34% | 1.49% | -8% | 11% | – | – |
| Fc1ccc(CC2CCCNC2)cc1 (stereo not drawn) [C1] | – | 21% | 23% | 19% | 42% | 42% | 42% | 47% | 37% | 22% | 27% | 18% | – | 21% |
| c1ccc(-c2ccncc2)cc1 [C2] | 0% | -6% | -11% | 0% | 36% | 36% | 36% | 32% | 40% | 6% | 14% | -2% | – | – |
| NC(c1ccccc1)c1ccccc1 [C3] | 0% | -12% | -22% | -1.84% | 25% | 25% | 25% | 16% | 33% | 0% | -16% | -1% | -9% | – |
